EP0054589B1, “Organic phosphoric acid ester derivatives, a process for preparing the same and insecticidal, miticidal or nematocidal compositions containing the same” (priority 1980, dated 1982)
Like-named read-outs stand apart in the source and are kept apart here.

Key:
[1] = system: apple leaf miner; assay: Insecticidal effect on apple leaf miner (sprayed apple seedling); format: in vivo, Lithocolletis ringoniella; details: for mortality at 500 ppm: Phyllonorycter ringoniella, 336 h
Procedure: (§1) (A) A dilute water suspension of a wettable powder prepared as described in Formulation Example 5 was sufficiently sprayed using a spray-gun on a seedling of an apple tree planted in a bisque flower pot to which plant larvae of apple leaf miner just after hatching were parasitic. Thereafter the pots were placed in a green house. Fourteen days after the spraying, bores made by larvae were broken and percent mortality was assessed for all the leaves of each seedling. Three pots were used for each treatment.
as §1, with “(B)” for “(A)”, “7” for “5”

[2] = system: diamond back moth; assay: Insecticidal effect on diamond-back moth (cabbage leaf dip); format: in vivo, Plutella xylostella; details: after 72 hours, 25°C
Procedure: (§2) (A) An emulsifiable concentrate prepared as described in Formulation Example 1 was diluted with water to a predetermined concentration and leaves of a cabbage were dipped into the dilute emulsion for 10 seconds followed by drying in air, and charged in a 60 ml volume cup made of vinyl chloride resin. Then, thirty 3rd-instar larvae of diamond back moth were put in each cup, and the cups were kept at 25°C. After 72 hours, percent mortality was assessed and the test was replicated 3 times for each treatment.
as §2, with “(B) An” for “(A) An”, “Example 4” for “Example 1”

[3] = system: tobacco cutworm; assay: Insecticidal effect on tobacco cutworm (cabbage leaf dip); format: in vivo, Prodenia litura; details: after 48 hours, 25°C
Procedure: (§3) (A) An emulsifiable concentrate prepared as described in Formulation Example 1 was diluted with water to a predetermined concentration and then cabbage leaves were dipped into the dilute solution and dried in air and placed in a 60 ml volume cup made of vinyl chloride resin. 3rd-instar larvae of tobacco cutworm were put in each cup and maintained at 25°C. After 48 hours, percent mortality was assessed. The test was replicated 3 times for each compound using 30 insects in each test.
as §3, with “(B)” for “(A)”, “3” for “1”

[4] = system: Apple; assay: Phytotoxicity on various crops; format: in vivo; parameters: key: Symbol — indicates that no toxicity was observed; details: 500 ppm sprayed; checked visually after 10 days
Procedure: (§4) An emulsifiable concentrate prepared as described in Formulation Example 2 was diluted with water to a concentration of 500 ppm based on the effective ingredient and sprayed sufficiently using a spray-gun onto various test plants. The plants were kept in a green house. After 10 days from the application phytotoxicity was checked visually. The test was replicated 3 times for each compound.

[5] = system: Rice; assay: Phytotoxicity on various crops; format: in vivo; parameters: key: Symbol — indicates that no toxicity was observed; details: 500 ppm sprayed; checked visually after 10 days
Procedure: as §4

[6] = system: Green Pepper; assay: Phytotoxicity on various crops; format: in vivo; parameters: key: Symbol — indicates that no toxicity was observed; details: 500 ppm sprayed; checked visually after 10 days
Procedure: as §4

[7] = system: egg plant; assay: Phytotoxicity on various crops; format: in vivo; parameters: key: Symbol — indicates that no toxicity was observed; details: 500 ppm sprayed; checked visually after 10 days
Procedure: as §4

[8] = system: Tomato; assay: Phytotoxicity on various crops; format: in vivo; parameters: key: Symbol — indicates that no toxicity was observed; details: 500 ppm sprayed; checked visually after 10 days
Procedure: as §4

[9] = system: Beet; assay: Phytotoxicity on various crops; format: in vivo; parameters: key: Symbol — indicates that no toxicity was observed; details: 500 ppm sprayed; checked visually after 10 days
Procedure: as §4

[10] = system: Cucumber; assay: Phytotoxicity on various crops; format: in vivo; parameters: key: Symbol — indicates that no toxicity was observed; details: 500 ppm sprayed; checked visually after 10 days
Procedure: as §4

[11] = system: Tea; assay: Phytotoxicity on various crops; format: in vivo; parameters: key: Symbol — indicates that no toxicity was observed; details: 500 ppm sprayed; checked visually after 10 days
Procedure: as §4

[12] = system: Cabbage; assay: Phytotoxicity on various crops; format: in vivo; parameters: key: Symbol — indicates that no toxicity was observed; details: 500 ppm sprayed; checked visually after 10 days
Procedure: as §4

[13] = system: Cotton; assay: Phytotoxicity on various crops; format: in vivo; parameters: key: Symbol — indicates that no toxicity was observed; details: 500 ppm sprayed; checked visually after 10 days
Procedure: as §4

[14] = system: Kidney Bean; assay: Phytotoxicity on various crops; format: in vivo; parameters: key: Symbol — indicates that no toxicity was observed; details: 500 ppm sprayed; checked visually after 10 days
Procedure: as §4

[15] = system: rice stem borer; assay: Insecticidal effect on rice stem borer, 3rd-instar larvae (rice seedling dip); format: in vivo, Chilo suppressalis; details: after 72 hours, 25°C
Procedure: (§5) (A) A wettable powder prepared as described in Formulation Example 5 was diluted with water to a predetermined concentration. Rice seedlings were dipped into the dilute solution and placed in a 60 ml volume cup made of vinyl chloride resin, and 10 3rd-instar larvae of rice stem borer were put in each cup. The cups were capped and maintained at 25°C.
as §5, with “(B) A” for “(A) A”, “Example 7” for “Example 5”

[16] = system: carmine mites; assay: Miticidal effect on carmine mite (sprayed kidney bean seedling); format: in vivo, Tetranychus cinnabarius; details: 500 ppm
Procedure: An emulsifiable concentrate prepared as described in Formulation Example 1 and diluted to a predetermined concentration was sprayed using a spray-gun on a seedling of a kidney bean placed in a pot of 12 cm in diameter to which plant carmine mites were parasitic. After drying in air, seedlings were kept in a green house, and the number of living insects was recorded on the 7th, 14th, 21st and 28th day from the day of application to determine the control effects. Three pots were used for each treatment. The control effect was assessed by the following formula: [formula] • wherein Σ indicates sum and Cb, Tb, Cai and Tai have the following meanings. • Cb: Number of living mites in non-treated sample before application. • Tb: Number of living mites in treated sample before application. • Cai: Number of living mites in non-treated sample 7th, 14th, 21 st or 28th day from the application. • Tai: Number of living mites in treated sample 7th, 14th, 21st or 28th day from the application.

[17] = system: carmine mites resistant to Kelthane; assay: Miticidal effect on carmine mite resistant to Kelthane (sprayed egg plant seedling); format: in vivo, Tetranychus cinnabarius; details: Table 13, 500 ppm
Procedure: (§6) (A) An emulsifiable concentrate prepared as described in Formulation Example 1 and diluted to a predetermined concentration was sprayed using a spray-gun on a seedling of an egg plant placed in a pot of 12 cm in diametre to which plant carmine mites resistant to Kelthane were parasitic. After drying in air, seedlings were kept in a green house, and the number of living insects was recorded on the 7th, 14th, 21 st and 28th day from the day of application to determine the control effects. Three pots were used for each treatment. The control effect was assessed by the formula described in TEST EXAMPLE 7 above. Further, phytotoxicity was observed visually on the 7th day after the application.
as §6, with “(B) An” for “(A) An”, “Example 3” for “Example 1”, “in diameter” for “in diametre”, “in Test” for “in TEST”

[18] = system: tobacco cutworm; assay: Long-lasting insecticidal effect on tobacco cutworm (sprayed cabbage plantlet); format: in vivo, Prodenia litura; details: concentration 500 (unit not given), mortality after 48 hours; for Percent Mortality After Application 3rd Day: leaves cut on 3rd day
Procedure: (§7) (A) An emulsifiable concentrate prepared as described in Formulation Example 2 was diluted with water to a predetermined concentration and sprayed onto a cabbage plantlet in a flower pot of 15 cm in diameter using a spray-gun sufficiently and the tests plants were placed in a green house. The leaves of the plants were cut off on the 3rd, 5th, 7th, 10th and 15th day and placed in a 60 ml volume cup and 3rd-instar larvae of tobacco cutworm were put in each cup. The cups were kept in an incubator (25°C). After 48 hours, percent mortality was assessed. The tests was replicated 3 times for each compound using 30 insects in each test.
as §7, with “(B) An” for “(A) An”, “Example 3” for “Example 2”, “and 1 5th” for “and 15th”

[19] = Table 7, 100 ppm, emulsifiable concentrate as Formulation Example 1
[20] = Table 8, 100 ppm, emulsifiable concentrate as Formulation Example 4
[21] = Table 4, 100 ppm, emulsifiable concentrate as Formulation Example 3
[22] = egg plant seedling, Formulation Example 1

Structure (SMILES): CCOC(=O)C(SP(=S)(OC)OC)c1ccccc1 (stereo not drawn) [Elsan, S-(α-ethoxy-carbonyl benzyl O,O-dimethyl phosphorodithioate, reference compound]
- Percent Morality (%) ([1]; Table 10, 500 ppm, fourteen days after spraying, wettable powder as Formulation Example 5, 20160 min): 13.2%

Structure (SMILES): COP(=O)(OC)OC=C(Cl)Cl [DDVP, dimethyl 2,2-dichlorovinyl dimethyl phosphate, reference compound]
- Percent Mortality (%) [2, 19]: 23.3%
- Percent Mortality (%) ([2]; Table 7, 500 ppm): 76.7%
- Percent Mortality (%) [2, 20]: 6.7%
- Percent Mortality (%) ([2]; Table 8, 500 ppm): 83.3%
- Percent Mortality (%) [3, 21]: 46.7%

Structure (SMILES): CCCCSP(=O)(OCC)Oc1ccc2c(c1)OC(C)=CC2(C)C (stereo not drawn) [Compound No. 5]
- Phytotoxicity: Apple [4]: —
- Phytotoxicity: Rice [5]: —
- Phytotoxicity: Green Pepper [6]: —
- Phytotoxicity: Egg Plant [7]: —
- Phytotoxicity: Tomato [8]: —
- Phytotoxicity: Beet [9]: —
- Phytotoxicity: Cucumber [10]: —
- Phytotoxicity: Tea [11]: —
- Phytotoxicity: Cabbage [12]: —
- Phytotoxicity: Cotton [13]: —
- Phytotoxicity: Kidney Bean [14]: —
- Percent Mortality (%) [2, 19]: 100%
- Percent Mortality (%) ([3]; Table 3, 500 ppm, emulsifiable concentrate as Formulation Example 1): 100%
- Percent Mortality (%) ([15]; Table 1, 500 ppm, wettable powder as Formulation Example 5): 100%
- Control Effect (%) [16]: 91.2%
- Number of Living Mites after Application 7th Day [16]: 0
- Number of Living Mites after Application 14th Day [16]: 0
- Number of Living Mites after Application 21st Day [16]: 16
- Number of Living Mites after Application 28th Day [16]: 38
- Number of Living Mites after Application 7th Day [17, 22]: 0
- Number of Living Mites after Application 14th Day [17, 22]: 0
- Number of Living Mites after Application 21st Day [17, 22]: 9
- Number of Living Mites after Application 28th Day [17, 22]: 29
- Control Effect (%) ([17]; from mite counts on 7th, 14th, 21st and 28th day): 97.4%

Structure (SMILES): COc1nn(CSP(=S)(OC)OC)c(=O)s1 [Supracide, O,O-dimethyl-S-[5-methoxy-1,3,4-thiadiazol-2(3H)-onyl(3)-methyl]dithiophosphate, reference compound]
- mortality at 500 ppm ([1]; Table 11, 500 ppm, fourteen days after spraying, wettable powder as Formulation Example 7, read-out: Percent Mortality (%)): 72%

Structure (SMILES): COP1(=S)OCc2ccccc2O1 (stereo not drawn) [Salithion, 2-methoxy-4H-benzo-1,3,2-dioxaphosphorin 2-sulphide, reference compound]
- Percent Mortality After Application 3rd Day ([18]; Table 5): 20%
- Percent Mortality After Application 5th Day ([18]; Table 5, leaves cut on 5th day): 0%
- Percent Mortality After Application 7th Day ([18]; Table 5, leaves cut on 7th day): 0%
- Percent Mortality After Application 10th Day ([18]; Table 5, leaves cut on 10th day): 0%
- Percent Mortality After Application 15th Day ([18]; Table 5, leaves cut on 15th day): 0%
- Percent Mortality After Application 3rd Day ([18]; Table 6): 0%
- Percent Mortality After Application Immediately after Application ([18]; Table 6): 100%
- mortality at 500 ppm ([1]; Table 10, 500 ppm, fourteen days after spraying, wettable powder as Formulation Example 5, read-out: Percent Morality (%)): 95%

Structure (SMILES): CCCSP(=S)(OCC)Oc1cccc2c1C(C)=CC(C)(C)O2 (stereo not drawn) [Compound No. 26]
- Phytotoxicity: Apple [4]: —
- Phytotoxicity: Rice [5]: —
- Phytotoxicity: Green Pepper [6]: —
- Phytotoxicity: Egg Plant [7]: —
- Phytotoxicity: Tomato [8]: —
- Phytotoxicity: Beet [9]: —
- Phytotoxicity: Cucumber [10]: —
- Phytotoxicity: Tea [11]: —
- Phytotoxicity: Cabbage [12]: —
- Phytotoxicity: Cotton [13]: —
- Phytotoxicity: Kidney Bean [14]: —
- Percent Mortality (%) [2, 20]: 96.7%
- Percent Mortality (%) [3, 21]: 100%
- Percent Mortality (%) ([15]; Table 2, 100 ppm, wettable powder as Formulation Example 7): 100%

Structure (SMILES): CCOP(=S)(OCC)Oc1nc(Cl)c(Cl)cc1Cl [Dursban, 0,0-diethyl 0-(3,5,6-trichloro-2-pyridyl)phosphorothioate, reference compound]
- mortality at 500 ppm ([1]; read-out: Percent Morality (%)): 29.4%
